Test results: patent US20100280117A1 (Xanodyne Pharmaceuticals, Inc., priority 2009, published 2010)

What was measured:
women with menorrhagia [1] = assay: Example VIII double-blind placebo-controlled clinical study, six treated menstrual periods
heavy menstrual bleeding [2] = conditions: open label uncontrolled, 849 patients; cited from earlier work
women with menorrhagia [3] = assay: Example VII double-blind placebo-controlled clinical study, three treated menstrual periods; conditions: for proportion of responders (reduction in MBL and meaningful improvement, MI measure 6c): after first treated cycle, p<0.0001 vs placebo
heavy menstrual bleeding [4] = conditions: cited from earlier work
[5] = Randomized single-dose 4-way crossover bioequivalence/bioavailability study, fasting; design: species or system human (healthy female volunteers); conditions: female, human, in vivo, iv
[6] = tested on: patients diagnosed with menorrhagia; assay: Menorrhagia Instrument (MI) validation sub-study, treatment cohort; format: in vivo, human (women)
Experimental: The MI was evaluated in a sub population of patients enrolled in a clinical trial designed to assess the safety and efficacy of tranexamic acid at an oral dose of 3.9 g administered daily for up to 5 days during each menstrual period. Two groups of patients were used to assess the MI, one group of patients were those diagnosed with menorrhagia and undergoing treatment. The second group was an age matched normal group. The sub-study was designed: to collect sufficient quantitative data to support the construct-related validation of the MI measures; to collect sufficient quantitative data to support the assessment of meaningful/important change in blood loss to the women; to conduct a test/retest evaluation of the instrument, and to address the reliability of the MI measures.
A total of 262 women completed the MI. […] The MI measures 1-5 were administered at baseline and at the subsequent first and second non-treatment periods for the subjects in the normal cohort The MI measure 6 was administered and data collected, at Month 1 and Month 2. The Ruta Menorrhagia Questionnaire, SF-36 Health Survey and the MI were completed by the subject before visit procedures were performed. A subset of at least 50 subjects were asked to return to the study site 7 to 10 days after the baseline Visit but before the next menstrual period starts to complete the MI a second time.
A total of 177 patients were enrolled into the sub-study. […] The 149 patients remaining were intended to be age matched. The majority of patients in the study were in their late 30's or early 40's. Because of the difficulty of enrolling sufficient numbers of women with normal menstrual periods in this age bracket 18 evaluable patients were not age matched. A total of 131 evaluable patients were age matched. A sub-set of 80 evaluable patients participated in the test/retest segment of the validation. Of these patients 11 were evaluable but not age matched. Data from all 80 patients were used for statistical evaluation of the test/re-test correlations.
The following Measures were summarized and statistically analyzed: • MI measure1—Blood Loss Rating • MI measure 2—Limitation of Work Outside or Inside the Home • MI measure 3—Limitation of Physical Activities • MI measure 4—Limitation of Social or Leisure Activities • MI measure 6/6a/6b—Menstrual Blood Loss During Last Period • MI measure 6c—Meaningfulness of Change in Menstrual Blood Loss
The MI consisted of 4 individual measures (1-4) that were analyzed separately for validation. No summative scale was derived. […] Measures 6, 6a and 6b dealt with menstrual blood loss relative to the previous menstrual period. The answers to the measures in the subparts of measure 6, were combined to produce a 15 point rating scale. The scale values range from −7 to +7 with −7 representing a very great deal worse menstrual blood loss than the previous period, and +7 representing a very great deal better menstrual blood loss than the previous period. The midpoint (0) represents the perception of about the same menstrual blood loss as the previous period.
The ability to detect change required that values for the item or instrument change when the concept it measures changed. In order to measure the MI items ability to detect change, longitudinal data were evaluated focusing primarily on the changes from baseline to month 1. Differences in proportions and comparisons between treatment and normal groups were compared using chi-square statistics (the Stuart-Maxwell test testing marginal homogeneity for all categories simultaneously). […] The Cohen Effect Size was computed by taking the mean change in measure score (baseline to month 1) and dividing that by the standard deviation of mean baseline score.^2 ^2 Cohen, J. J. (1988). Statistical power analysis for the behavioral sciences (p. 8). Erlbaum: Hillsdale, N.J.

[7] = 3.9 g/day compared with placebo
[8] = treatment group, 3.9 g daily, score 1-5, n 126
[9] = treatment group, baseline to month 1
[10] = treatment group, Cohen effect size
[11] = women on treatment who reported a meaningful improvement

clearance [5]: 137 mL/min | half-life [5]: 10.2 h
SMILES: NC[C@H]1CC[C@H](C(=O)O)CC1 [tranexamic acid]
LWH (MI measure #2) (women with menorrhagia [1]; [7]): significantly reduced | subjects' assessment of MBL (MI measure #1) (women with menorrhagia [1]; [7]): significantly reduced | mean LPA score, change from baseline (women with menorrhagia [1]; 3.9 g/day, MI measure 3): significant treatment-related reductions | mean LSLA score, change from baseline (women with menorrhagia [1]; 3.9 g/day, MI measure 4): significant treatment-related reductions | proportion of responders (reduction in MBL and meaningful improvement, MI measure #6c) (women with menorrhagia [1]; 3.9 g/day, after first treated cycle, p<0.0001 vs placebo): 65.4% | regression slope of MBL response over six menstrual cycles (women with menorrhagia [1]; 3.9 g/day, p=0.615): −0.90 mL/cycle | women satisfied with the treatment (heavy menstrual bleeding [2]): 80% | clinical relevance of mean reduction in menstrual blood loss (criteria: >50 mL; at least 36 mL meaningful) (women with menorrhagia [3]; 1.9 and 3.9 g/day): met both criteria for a clinically meaningful result | proportion of responders (reduction in MBL and meaningful improvement, MI measure 6c) (women with menorrhagia [3]; 1.95 g/day): 58.3% | LWH (MI measure 2) (women with menorrhagia [3]; [7]): significantly reduced | subjects' assessment of MBL (MI item 1) (women with menorrhagia [3]; [7]): significantly reduced | proportion of responders (reduction in MBL and meaningful improvement, MI measure 6c) (women with menorrhagia [3]; 3.9 g/day): 71.0% | mean LPA score, change from baseline (women with menorrhagia [3]; Limitation in Physical Activities, MI measure 3): Significant treatment-related reductions | mean LSLA score, change from baseline (women with menorrhagia [3]; Limitation in Social Leisure Activities, MI measure 4): Significant treatment-related reductions | efficacy in the treatment of HMB (heavy menstrual bleeding [4]; doses of ˜4 g/day (typically 1 g every 6 hours), immediate-release): effective | side effects (heavy menstrual bleeding [4]; doses of ˜4 g/day (typically 1 g every 6 hours)): few side effects | reduction of heavy menstrual bleeding (heavy menstrual bleeding [4]; research from European countries): 40-50% | calculated effect size, range over the four MI items ([6]; treatment group): −0.9 to −1.2 | mean change in response from baseline to month 1, range over the four MI items ([6]; treatment group): −0.76 to −1.16 | MI Item 1 self-perceived blood loss, Month 1 mean ([6]; treatment group, 3.9 g daily oral up to 5 days, score 1-4, n 126): 2.49 | MI Item 2 limit you in your work, Month 1 mean [6, 8]: 2.12 | MI Item 3 limit you in your physical activities, Month 1 mean [6, 8]: 2.13 | MI Item 4 limit you in your social/leisure activities, Month 1 mean [6, 8]: 2.00 | MI Item 1 self-perceived blood loss, mean change [6, 9]: −0.76 | MI Item 2 limit you in your work, mean change [6, 9]: −0.93 | MI Item 3 limit you in your physical activities, mean change [6, 9]: −1.16 | MI Item 4 limit you in your social/leisure activities, mean change [6, 9]: −1.06 | women on treatment who reported a meaningful improvement ([6]; treatment group, month 1, MI measure 6/6c): 78.6% | MI Item 2 limit you in your work, Effect Size [6, 10]: −0.939 | MI Item 3 limit you in your physical activities, Effect Size [6, 10]: −1.221 | MI Item 4 limit you in your social/leisure activities, Effect Size [6, 10]: −1.000 | MI Item 1 self-perceived blood loss, Effect Size ([6]; treatment group, Cohen effect size, mean change / SD of baseline): −1.226 | improvement in MI item 3 (physical activities) [6, 11]: 1.29 | improvement in MI item 4 (social/leisure activities) [6, 11]: 1.17
